Source: ChEMBL document CHEMBL2010754, “Unusual isomeric corniculatolides from mangrove, Aegiceras corniculatum” (J Nat Prod, 2012)
The source made the active and inactive calls.

Legend:
Type in all cases: functional, organism-based
Escherichia coli = assay: Antibacterial activity against Escherichia coli by agar diffusion method
Micrococcus luteus = assay: Antibacterial activity against Micrococcus luteus by agar diffusion method
Aspergillus flavus = assay: Antifungal activity against Aspergillus flavus by agar diffusion method
Bacillus subtilis = assay: Antibacterial activity against Bacillus subtilis by agar diffusion method
Staphylococcus aureus = assay: Antibacterial activity against Staphylococcus aureus by agar diffusion method
Aspergillus terreus = assay: Antifungal activity against Aspergillus terreus by agar diffusion method
Aspergillus niger = assay: Antifungal activity against Aspergillus niger by agar diffusion method
Klebsiella pneumoniae = assay: Antibacterial activity against Klebsiella pneumoniae by agar diffusion method

Measured: Activity

COc1c(O)cc2cc1Oc1ccc(cc1)CCCOC(=O)CC2
inactive: all assays above

COc1ccc2cc1Oc1ccc(cc1)CCC(=O)OCCC2
inactive: all assays above

O=C1CCc2ccc(O)c(c2)Oc2ccc(cc2)CCCO1
inactive: all assays above

O=C1CCc2ccc(cc2)Oc2cc(ccc2O)CCCO1
inactive: all assays above

COc1ccc2cc1Oc1ccc(cc1)CCCOC(=O)CC2
inactive: all assays above
